pIC50: −log10 of the molar value. Read-outs that look alike come from different tables or passages of the source.
How the values were obtained:
A2B receptors [1] = molecular target: T1, A2B receptors (Homo sapiens, UniProt P29275); conditions: cited from earlier work
T1 sequence (P29275 1-332): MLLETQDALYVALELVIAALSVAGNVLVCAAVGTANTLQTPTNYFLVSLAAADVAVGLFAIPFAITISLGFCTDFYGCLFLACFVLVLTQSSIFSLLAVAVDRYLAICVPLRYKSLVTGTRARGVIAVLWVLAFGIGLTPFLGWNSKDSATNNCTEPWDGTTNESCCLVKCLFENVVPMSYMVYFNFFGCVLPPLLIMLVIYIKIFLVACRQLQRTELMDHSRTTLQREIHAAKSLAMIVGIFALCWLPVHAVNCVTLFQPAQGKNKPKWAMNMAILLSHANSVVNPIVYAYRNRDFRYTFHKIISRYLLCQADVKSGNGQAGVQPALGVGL

A2B receptors [2] = molecular target: T1, A2B receptors; assay: cAMP HTRF functional assay, recombinant HEK293 cells expressing human A2B receptor, agonist NECA; format: cell-based; design: expressed in transfected cells; host or cells: HEK293
Method: (§1) The functional activities of human A2A, A2B, A1 and A3 receptors were determined by quantification of cAMP, being the second messenger for adenosine receptors.
(§2) Obtained raw data were normalized against the inhibitor control and the neural control (DMSO) and the normalized data were fitted using GeneData software.

human A1 receptor = molecular target: T2, human A1 receptor (Homo sapiens, UniProt P30542); assay: cAMP HTRF functional assay, recombinant CHO cells expressing human A1 receptor, forskolin and agonist CPA; format: cell-based
T2 construct: expressed in transfected cells; host or cells: CHO
T2 sequence (P30542 1-326): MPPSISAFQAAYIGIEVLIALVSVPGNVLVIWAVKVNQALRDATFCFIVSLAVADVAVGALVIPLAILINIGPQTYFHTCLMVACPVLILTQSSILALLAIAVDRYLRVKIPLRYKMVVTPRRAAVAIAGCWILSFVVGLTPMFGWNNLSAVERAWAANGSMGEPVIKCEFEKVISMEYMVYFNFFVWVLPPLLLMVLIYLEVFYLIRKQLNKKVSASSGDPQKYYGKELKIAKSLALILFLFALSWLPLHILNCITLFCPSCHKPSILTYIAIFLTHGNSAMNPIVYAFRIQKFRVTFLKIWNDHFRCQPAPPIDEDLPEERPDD

human A2A receptor = molecular target: T3, human A2A receptor (Homo sapiens, UniProt P29274); assay: cAMP HTRF functional assay, recombinant HEK293 cells expressing human A2A receptor, agonist NECA; format: cell-based
T3 construct: expressed in transfected cells; host or cells: HEK293
T3 sequence (P29274 whole entry): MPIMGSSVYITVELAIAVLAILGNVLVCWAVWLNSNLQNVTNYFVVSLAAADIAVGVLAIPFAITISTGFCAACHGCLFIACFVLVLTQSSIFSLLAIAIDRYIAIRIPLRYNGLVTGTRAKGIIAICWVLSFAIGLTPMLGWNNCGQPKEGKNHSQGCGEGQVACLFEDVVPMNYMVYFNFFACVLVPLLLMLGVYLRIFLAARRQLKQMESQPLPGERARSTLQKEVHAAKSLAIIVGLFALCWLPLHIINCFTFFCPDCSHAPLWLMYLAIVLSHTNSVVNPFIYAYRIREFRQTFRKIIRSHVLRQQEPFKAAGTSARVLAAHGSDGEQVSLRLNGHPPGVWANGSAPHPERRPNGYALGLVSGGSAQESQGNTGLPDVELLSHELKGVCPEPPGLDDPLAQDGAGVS
Method: as §1, §2

human A3 receptor = molecular target: T4, human A3 receptor (Homo sapiens, UniProt P0DMS8); assay: cAMP HTRF functional assay, recombinant CHO cells expressing human A3 receptor, forskolin and agonist IB-MECA; format: cell-based
T4 construct: expressed in transfected cells; host or cells: CHO
T4 sequence (P0DMS8 1-318): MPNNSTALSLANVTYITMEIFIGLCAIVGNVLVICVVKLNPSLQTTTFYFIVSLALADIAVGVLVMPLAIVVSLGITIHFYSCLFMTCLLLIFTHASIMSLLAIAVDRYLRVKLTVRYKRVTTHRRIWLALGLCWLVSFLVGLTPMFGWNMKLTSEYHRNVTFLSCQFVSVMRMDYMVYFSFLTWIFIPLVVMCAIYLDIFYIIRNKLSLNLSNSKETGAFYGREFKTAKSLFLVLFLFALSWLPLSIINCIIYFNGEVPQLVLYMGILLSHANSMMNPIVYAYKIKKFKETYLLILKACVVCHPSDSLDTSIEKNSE
Method: as §1
For human A1 and A3 receptors, recombinant CHO cells, expressing either A1 or A3-receptor, were used. As both receptors couple to Gi proteins, the assay protocol was adapted:
Cells were seeded into 384-well plates, forskolin, test compounds and agonists (CPA for A1- and IB-MECA for A3-receptor) were added. After 30 min incubation, HTRF reagents (cAMP dynamic 2, Cis Bio) were added and the cellular cAMP levels were determined using the ENVISION (Perkin Elmer) plate reader.
as §2

[3] = pharmacokinetics in mouse after single intravenous and oral administration; conditions: for Feces iv [%]: PK data in mouse, iv @ 0.2, excretion as % of dose; for Vd / clearance / half-life / Cmax: female, mouse, plasma, iv; for Vd / clearance / half-life: 0.2 mg/kg; for Cmax: 1 mg/kg
Text: Female Wistar rats/mice (n=6) received either a single intravenous (bolus) injection or an oral administration (by gavage) of the tested compound.
The concentrations of the compounds in plasma, feces were quantified using an UPLC method with tandem mass spectrometric detection (LC-MS/MS) previously developed at the ‘Institute of Drug Metabolism and Pharmacokinetics’. The LCMS/MS system consisted of a Waters Acquity UPLC coupled to an AB Sciex mass spectrometer API 5500 Q-trap. […] The detection of the compounds was performed using multiple reaction monitoring in the positive ionization mode. Plasma samples were spiked with internal standard (20 μl) and the analyte was extracted from the matrix using tertiary-butyl methyl ether (tBME). The organic phase was evaporated to dryness under a stream of nitrogen. The residue was dissolved in acetonitrile/0.1% formic acid for LC-MS/MS analysis. Feces samples were homogenized with 4-times their volume of an ethanol/water mixture (4:1, v/v). Aliquots of the aqueous-ethanolic extracts were spiked with internal standard, diluted with acetonitrile/water (1:1, v/v) and directly injected into the LC-MS/MS system.
Pharmacokinetic parameters Cmax and tmax were taken from the observed data. […] AUC values were calculated by non-compartmental analysis using the linear up/log down method. Numerical data for mean plasma concentrations and derived pharmacokinetic parameters were rounded to 3 significant digits for presentation.

mouse Pan T cells = assay: rescue of cytokine (IL-2, IFN-γ) secretion of CD3/CD28-activated mouse Pan T cells inhibited by CGS-21680; format: cell-based; conditions: Mus musculus, T-cell
Text: Adenosine (Ado) in tumor microenvironment can inhibit T cell activity by signaling through A2A receptors and suppress cytokine secretion by T cells. […] Potential A2A antagonists or A2A/A2B dual antagonists can rescue T cells from this inhibition. Herein, we describe the in vitro system we established using Pan T cells from mouse spleens to screen potential A2A antagonists or A2A/A2B dual antagonists for their activity. The method described involves the use of CD3/CD28 pre-coated beads to stimulate Pan T cells purified from mouse splenocytes, combined with the addition of A2A agonist along with potential A2A or A2A/A2B dual antagonists to evaluate potentiation of T cell cytokine production.
Briefly, mouse Pan T cells are purified from spleens of BALB/c mice using Pan T cell isolation kit Mouse II (MACS Miltenyi biotech Cat #Order no. 130-095-130) according to manufacturer's protocol. The purified T cells are seeded in Nunc™ 96-Well Polystyrene Round Bottom Microwell Plates in RPMI medium with 10% heat inactivated fetal bovine serum. The cells are rested at 37° C. for 1 h before activating with CD3/CD28 pre-coated beads (Dynabeads™ Mouse T-Activator CD3/CD28; Cat #11456D). After 30 min the cells are treated with varying doses of test antagonist(s). […] After 24 h incubation IL-2 levels in the supernatants and after 48 h incubation IFN-γ levels in the supernatants are measured by ELISAs according to manufacturer's protocol (R&D systems Cat #DY402 (IL-2); DY485 (IFN-γ)). Once the concentrations are calculated, the difference of cytokine concentration of DMSO control and agonist alone control is calculated (called Δ) and the percentage of rescue by each concentration of antagonist is calculated by using Microsoft Excel. These percentages of cytokine rescue in a dose dependent manner of antagonist is plotted in GraphPad Prism software and IC50 is calculated.

[4] = 24 h, read-out: Mouse T-Cell IL-2

Row | pIC50 (A2B receptors [2]) | pIC50 (human A1 receptor) | pIC50 (human A2A receptor) | pIC50 (human A3 receptor) | Feces iv [%] [3] | Vd [3] [L/kg] | clearance [3] [mL/min/kg] | half-life [3] [h] | Cmax [3] [ng/mL] | pIC50 (mouse Pan T cells; [4]) | pIC50 (mouse Pan T cells; 48 h, read-out: Mouse IFN-γ) | SMILES | affinity for A2B receptors (A2B receptors [1])
1 | – | – | – | – | – | – | – | – | – | – | – | CCCn1c(=O)c2[nH]c(-c3ccc(S(=O)(=O)O)cc3)nc2n(CCC)c1=O [DPSPX, 1,3-dipropyl-8-sulphophenylxanthine] | mid to high nM range
2 | – | – | – | – | – | – | – | – | – | – | – | O=c1[nH]c(=O)c2nc3ccccc3nc2[nH]1 [alloxazine, 2,4-dioxobenzopteridine] | mid to high nM range
3 | < 6.00 | < 6.00 | > 7.00 | < 6.00 | 12.5 @ 0.2% | 1.13 | 5.65 | 2.37 | 732 | 6.40 | 6.22 | COc1ccc(-c2ccccc2)c2ncc(NC(=O)N3CCC(C)(O)CC3)nc12 [compound 2, 4-Hydroxy-4-methyl-piperidine-1-carboxylic acid (8-methoxy-5-phenyl-quinoxalin-2-yl)-amide] | –
4 | < 6.00 | > 6.00 | > 7.00 | < 6.00 | 6.2 @ 0.2% | 0.82 | 3.78 | 2.56 | 983 | 6.43 | 6.48 | COc1ncc(-c2ccccc2)c2ncc(NC(=O)N3CCC(C)(O)CC3)nc12 [compound 27, 4-Hydroxy-4-methyl-piperidine-1-carboxylic acid (5-methoxy-8-phenyl-pyrido[3,4-b]pyrazin-3-yl)-amide] | –
5 | – | – | – | – | – | – | – | – | – | – | – | CCCn1c(=O)[nH]c(=O)c2[nH]cnc21 [enprofylline, 3-n-propylxanthine] | mid to high nM range

From patent US11192899B2 (MERCK PATENT GMBH, priority 2017, dated 2021)
